{"source": "patent US11033547B2", "about": "“Carboxamide-pyrimidine derivatives as SHP2 antagonists” (Merck Patent GmbH, priority 2019, dated 2021)", "key": {"[1]": {"target": "Full length SHP2 protein (Recombinant Human SHP-2) (Homo sapiens, UniProt Q06124)", "sequence (Q06124 2-593 limits assumed)": "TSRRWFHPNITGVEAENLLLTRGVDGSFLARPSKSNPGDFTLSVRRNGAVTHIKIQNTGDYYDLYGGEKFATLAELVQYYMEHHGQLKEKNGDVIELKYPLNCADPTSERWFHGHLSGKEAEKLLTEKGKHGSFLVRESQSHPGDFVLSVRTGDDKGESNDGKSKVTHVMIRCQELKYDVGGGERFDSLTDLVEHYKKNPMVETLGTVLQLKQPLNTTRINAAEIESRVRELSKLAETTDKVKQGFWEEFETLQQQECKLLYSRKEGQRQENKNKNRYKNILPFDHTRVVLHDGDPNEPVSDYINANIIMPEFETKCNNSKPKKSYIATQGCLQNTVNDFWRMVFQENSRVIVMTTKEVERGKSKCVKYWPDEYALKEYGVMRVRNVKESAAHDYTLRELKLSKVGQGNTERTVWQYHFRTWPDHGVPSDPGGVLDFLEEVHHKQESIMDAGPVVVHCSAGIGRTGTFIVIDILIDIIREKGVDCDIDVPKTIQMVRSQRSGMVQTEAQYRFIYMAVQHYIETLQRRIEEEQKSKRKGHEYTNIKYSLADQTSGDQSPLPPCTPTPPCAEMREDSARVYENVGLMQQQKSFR", "test": "SHP2 biochemical assay (DiFMUP substrate, activating peptide IRSI_2pY)", "experimental": "The inhibition of SHP2 by compounds of the invention was monitored using the surrogate substrate DiFMUP after protein activation by a peptide bearing two appropriately spaced phosphotyrosine. […] The generation of the DiFMU product by activated SHP2 was monitored through Fluorescence measurement with a PerkinElmer Envision reader.\nThe inhibitor dose response curves were analyzed with Genedata Screener."}, "[2]": {"target": "Kv11.1 (hERG) ion channel (Homo sapiens (Human), UniProt Q12809)", "sequence (Q12809 whole entry)": "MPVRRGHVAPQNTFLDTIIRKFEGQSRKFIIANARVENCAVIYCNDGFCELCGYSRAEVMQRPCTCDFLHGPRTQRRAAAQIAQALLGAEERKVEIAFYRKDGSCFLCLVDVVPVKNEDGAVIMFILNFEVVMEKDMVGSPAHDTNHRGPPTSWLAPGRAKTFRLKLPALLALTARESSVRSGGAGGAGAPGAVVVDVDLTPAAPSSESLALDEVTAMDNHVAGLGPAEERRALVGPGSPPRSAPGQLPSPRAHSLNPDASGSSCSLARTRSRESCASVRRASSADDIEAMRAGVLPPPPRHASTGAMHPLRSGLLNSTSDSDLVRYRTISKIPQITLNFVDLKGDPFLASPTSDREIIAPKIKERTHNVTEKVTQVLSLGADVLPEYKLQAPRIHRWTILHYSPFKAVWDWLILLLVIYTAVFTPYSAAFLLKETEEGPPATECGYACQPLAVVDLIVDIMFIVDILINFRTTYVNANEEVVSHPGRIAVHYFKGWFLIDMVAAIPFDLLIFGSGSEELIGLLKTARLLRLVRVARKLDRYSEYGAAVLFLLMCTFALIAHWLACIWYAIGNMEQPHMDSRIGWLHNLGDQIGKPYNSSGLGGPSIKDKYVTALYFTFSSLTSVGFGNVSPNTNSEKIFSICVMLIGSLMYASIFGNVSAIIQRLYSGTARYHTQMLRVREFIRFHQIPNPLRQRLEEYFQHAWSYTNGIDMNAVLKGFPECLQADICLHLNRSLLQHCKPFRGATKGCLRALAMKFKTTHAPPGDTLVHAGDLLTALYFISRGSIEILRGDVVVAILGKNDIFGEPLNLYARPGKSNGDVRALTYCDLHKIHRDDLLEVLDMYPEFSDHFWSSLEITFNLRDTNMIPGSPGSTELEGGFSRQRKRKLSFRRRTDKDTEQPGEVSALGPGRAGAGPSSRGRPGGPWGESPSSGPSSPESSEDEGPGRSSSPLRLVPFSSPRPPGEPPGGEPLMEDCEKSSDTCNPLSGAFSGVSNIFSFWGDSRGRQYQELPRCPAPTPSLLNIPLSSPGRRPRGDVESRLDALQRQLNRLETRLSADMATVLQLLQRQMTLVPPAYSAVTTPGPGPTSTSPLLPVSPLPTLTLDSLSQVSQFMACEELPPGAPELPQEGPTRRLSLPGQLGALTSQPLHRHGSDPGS", "format": "cell-based", "details": "ratio of hERG Ki (patch clamp) to pERK IC50 in KYSE520", "experimental": "Inhibition of the ion channel hErg (or Kv11.1) current causes QT interval prolongation resulting in potentially fatal ventricular tachyarrhythmia called Torsade de Pointes.\nhERG ion channel activity was assessed using a patch clamp technique in stable Kv11.1 (hERG) transfected human embryonic kidney cell line (HEK293). Whole cell recordings were carried out with an automated patch clamp device Patchliner™ from Nanion Technologies, Munich following manufacturer recommendation. Different concentrations of the test compound or reference, quinidine, were applied to whole cells suspension and current was measured using a pulse pattern with fixed amplitudes."}, "[3]": {"target": "T1, auto-activated mutant protein SHP2 E76K (Homo sapiens (Human), UniProt Q06124, E76K)", "T1 sequence (Q06124 whole entry E76K)": "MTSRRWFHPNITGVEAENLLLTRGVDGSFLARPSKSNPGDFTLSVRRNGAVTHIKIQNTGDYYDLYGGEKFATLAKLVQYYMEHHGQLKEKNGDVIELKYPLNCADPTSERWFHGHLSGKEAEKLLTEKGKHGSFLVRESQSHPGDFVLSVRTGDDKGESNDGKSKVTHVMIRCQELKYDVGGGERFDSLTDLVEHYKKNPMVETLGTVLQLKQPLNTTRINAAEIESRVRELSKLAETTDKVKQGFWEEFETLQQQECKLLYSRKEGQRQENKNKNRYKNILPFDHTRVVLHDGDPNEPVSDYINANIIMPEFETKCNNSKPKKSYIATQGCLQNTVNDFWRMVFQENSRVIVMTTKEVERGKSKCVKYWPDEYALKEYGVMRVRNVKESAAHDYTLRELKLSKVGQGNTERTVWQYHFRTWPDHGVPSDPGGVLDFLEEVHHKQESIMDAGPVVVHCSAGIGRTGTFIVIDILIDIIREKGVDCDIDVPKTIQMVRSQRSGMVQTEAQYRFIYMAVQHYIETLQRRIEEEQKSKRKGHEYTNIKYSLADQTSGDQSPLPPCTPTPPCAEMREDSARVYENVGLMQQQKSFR", "test": "SHP2 E76K mutant biochemical assay without activating peptide", "details": "no activating peptide, read-out: SHP-2 E76Z IC50 No peptide", "experimental": "(§1) The inhibition of SHP2 by compounds of the invention was monitored using the surrogate substrate DiFMUP after protein activation by a peptide bearing two appropriately spaced phosphotyrosine. Full length SHP2 protein (Recombinant HumanSHP-2, E. coli derived Ser2Arg593, N-terminal 6His tag from R&D systems; […]) was incubated with activating peptide, IRSI_2pY (New England Peptide, 140 nM) and DiFMUP (molecular probes, 80 uM) at RT in buffer (HEPES pH 7.2 60 mM, DDT 5 mM, KCl 75 mM, NaCl 75 mM, EDTA 1 mM, Tween 20 0.05%) in presence of compound (10 concentrations range, top concentration 50 μM) for 60 min. The generation of the DiFMU product by activated SHP2 was monitored through Fluorescence measurement with a PerkinElmer Envision reader.\n(§2) A selection of compounds has been tested in a biochemical assay using same conditions as described in example 3, but with an auto-activated mutant protein SHP2 E76K with and without the addition of the activating peptide IRSI_2pY (New England Peptide, 140 nM)."}, "[4]": {"target": "T1, auto-activated mutant protein SHP2 E76K", "test": "SHP2 E76K mutant biochemical assay with activating peptide IRSI_2pY", "details": "SHP2 E76K mutant with activating peptide IRSI_2pY 140 nM; read-out: SHP-2 E76Z IC50 peptide", "experimental": "as §1, §2"}}, "note": "pIC50: −log10 of the molar value. Read-outs that look alike come from different tables or passages of the source."}
{"smiles": "NC(=O)c1nc(N2CCC3(CC2)Cc2ccccc2[C@H]3N)nc(N)c1-c1cccc(Cl)c1Cl", "note": "(single isomer, unassigned) [Compound 117]", "values": [{"measurement": "pIC50", "setting": "[1]; DiFMUP substrate, activating peptide IRSI_2pY, 60 min at RT, read-out: SHP-2 Biochemical assay IC50", "value": 9.00}, {"measurement": "pIC50", "setting": "[1]; wild-type SHP-2 with activating peptide, read-out: SHP-2 IC50 peptide", "value": 9.40}, {"measurement": "Split between hErg and cell activity Ki(patch Clamp)/IC50 (KYSE)", "setting": "[2]", "value": ">50"}, {"measurement": "pIC50", "setting": "[3]", "value": 9.30}, {"measurement": "pIC50", "setting": "[4]", "value": 8.96}]}
